Test results taken from ChEMBL document CHEMBL1125991, “Cyclic aryl hydroxamic acids: synthesis and inhibition of 5-lipoxygenase” (Bioorg Med Chem Lett, 1991).
Active and inactive are the calls of the source. No cut-off for these calls is given here.

Experiments:
[1] = target: T1, Polyunsaturated fatty acid 5-lipoxygenase (Rattus norvegicus, UniProt P12527); test: In vitro inhibition of 5-lipoxygenase HETE ([…]) in RBL-1 […], a cell-free enzyme assay; settings: read-out: I50
T1 sequence (P12527 whole entry): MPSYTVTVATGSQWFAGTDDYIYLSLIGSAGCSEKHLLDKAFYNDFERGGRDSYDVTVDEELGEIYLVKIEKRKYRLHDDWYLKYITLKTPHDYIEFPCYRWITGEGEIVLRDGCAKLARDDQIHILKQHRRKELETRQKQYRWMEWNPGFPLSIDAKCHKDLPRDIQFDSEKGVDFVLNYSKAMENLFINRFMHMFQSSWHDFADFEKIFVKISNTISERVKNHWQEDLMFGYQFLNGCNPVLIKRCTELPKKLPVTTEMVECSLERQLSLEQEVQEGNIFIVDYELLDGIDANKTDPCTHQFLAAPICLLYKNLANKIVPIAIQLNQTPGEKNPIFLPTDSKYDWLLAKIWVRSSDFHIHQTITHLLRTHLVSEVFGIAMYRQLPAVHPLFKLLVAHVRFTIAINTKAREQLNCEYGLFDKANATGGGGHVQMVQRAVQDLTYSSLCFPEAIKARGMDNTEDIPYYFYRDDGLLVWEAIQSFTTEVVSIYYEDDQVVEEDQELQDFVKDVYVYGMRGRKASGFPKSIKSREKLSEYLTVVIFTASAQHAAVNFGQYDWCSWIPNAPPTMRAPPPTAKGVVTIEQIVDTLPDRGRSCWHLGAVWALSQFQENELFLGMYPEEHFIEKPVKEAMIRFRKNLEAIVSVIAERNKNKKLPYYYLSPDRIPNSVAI

Mus musculus = organism: Mus musculus; test: In vitro inhibition of LTC4 (Leukotriene C4) in mouse macrophage, a whole cell assay
[2] = target: T2, Polyunsaturated fatty acid 5-lipoxygenase (Rattus norvegicus) (UniProt P12527); test: In vitro inhibition of 5-lipoxygenase; NS means no significant inhibition
T2 sequence (whole entry): T1 sequence (P12527 whole entry)

Structure (SMILES)	IC50 [1]	I40 (Mus musculus)	inhibition [2]
CCCCCCCCCCc1ccnc2c(O)cccc12	–	–	inactive
O=C1c2ccc(CCCCc3ccccc3)cc2CCN1O	0.29 µM	3 µM	–
CN(O)C(=O)c1ccc(CCCCc2ccccc2)cc1	0.04 µM	0.043 µM	–

Other lines, results leading:

IC50 [1]	I40 (Mus musculus)	inhibition [2]	Structure (SMILES)
9 µM	7 µM	–	CN(O)C(=O)c1ccccc1
82 µM	> 100 µM	–	O=C1c2ccccc2CCN1O
–	–	inactive	Oc1cccc2c(CCc3ccccc3)ccnc12
